Results taken from patent US11324787B2, “Analytical methods and arrays for use in the same” (SENZAGEN AB, priority 2017, dated 2022).
Read-outs that look alike come from different tables or passages of the source.

How the values were obtained:
[1] = cited from earlier work; for binary class: sens / non-sens; for true CLP: test set
[2] = cited from earlier work; for binary class (HP*): based on human potency [41] where available, otherwise according to CLP; for Human potency: class 1 representing highest potency, 6 representing non-sensitizers; for HP: human potency
[3] = tested on: myeloid cell line derived from MUTZ-3; experiment: GARD random forest model predicting CLP categories (52 transcripts, Example A); conditions: test set
[4] = tested on: myeloid cell line derived from MUTZ-3; experiment: Cytotoxicity / viability by flow cytometry (propidium iodide), 24 hours exposure; conditions: yes/no; MUTZ-3 derived cells
[5] = tested on: myeloid cell line derived from MUTZ-3; experiment: GARD binary classification (SVM on GARD prediction signature, 200 transcripts)
[6] = chemicals of random forest training and test set
[7] = Table 9, chemicals training set
[8] = Table 8 chemical list, GARD SVM decision value

| Molecule | CLP [1, 6] | binary class [1, 6] | CLP [1, 7] | SVM DV [5, 8] | HP [2, 6] | also measured |
| --- | --- | --- | --- | --- | --- | --- |
| CCCCBr [1-brombutane, 1-bromobutane] | no cat | non-sens | – | – | – | CLP ([1]; Table 10, chemicals test set 1): no cat; true CLP ([1]; per replicate line): no cat; true CLP [1]: no cat; binary class (HP*) [2]: NS (5-6 = NS); GARD predicted CLP ([3]; majority voting across replicates): no cat; predicted CLP ([3]; separate replicates): no cat |
| chloroanilin | 1B | sens | 1B | – | – | – |
| O=C(O)C(O)C(O)C(=O)O (stereo not shown) [tartaric acid] | – | – | – | – | – | cytotox [4]: no |
| NCCN [ethylenediamine] | – | – | – | 1.12 | – | – |
| O=CC=O [glyoxal] | – | – | – | 1.08 | – | – |
| C=CC(=O)OCCO [2-hydroxyethyl acrylate] | – | – | – | 8.87 | – | – |
| CC(C)O [isopropanol] | no cat | non-sens | no cat | −1.37 | 5 | Human potency [2]: 5 |
| O=C(Oc1ccccc1)c1ccccc1 [phenyl benzoate] | 1B | sens | 1B | – | 3 | – |
| Oc1cccc(O)c1 [resorcinol] | – | – | – | 1.03 | 4 | HP ([2]; 11 benchmark chemicals): 4; Human potency [2]: 4 |
| CC(O)C(=O)O (stereo not shown) [lactic acid] | – | – | – | −2.38 | 6 | – |
| OCC=Cc1ccccc1 [cinnamyl alcohol] | 1B | sens | 1B | – | 3 | – |
| xylene | – | – | – | – | 6 | Human potency [41] ([2]; test set): 6 |
| dextran | no cat | non-sens | no cat | – | 6 | binary class (HP*) [2]: NS (5-6 = NS); cytotox [4]: no |
| OCc1ccccc1 [benzyl alcohol] | no cat | non-sens | no cat | – | – | binary class (HP*) [2]: NS (5-6 = NS); cytotox [4]: no |
| CCCCCC [hexane] | no cat | non-sens | no cat | – | 6 | – |
| Nc1ccccc1O [2-aminophenol] | – | – | – | 5.98 | 2 | HP ([2]; 11 benchmark chemicals): 2; Human potency [2]: 2 |
| Oc1ccccc1 [phenol] | – | – | – | – | – | SVM DV [5]: −1.08 |
| O=[N+]([O-])c1ccc(Cl)c([N+](=O)[O-])c1 [2,4-dinitrochlorobenzene] | 1A | sens | 1A | – | 1 | CLP ([1]; 11 benchmark chemicals): 1A; binary class ([1]; 11 benchmark chemicals): sens; HP ([2]; 11 benchmark chemicals): 1 |
| C[S+](C)[O-] [dimethyl sulfoxide] | no cat | non-sens | – | – | 6 | – |
| O=C(O)CC(O)(CC(=O)O)C(=O)O [citric acid] | – | – | – | – | – | cytotox [4]: no |
| CCCCCCC(C=O)=Cc1ccccc1 [hexylcinnamic aldehyde] | 1B | sens | 1B | 1.24 | 5 | CLP ([1]; 11 benchmark chemicals): 1B; binary class ([1]; 11 benchmark chemicals): sens; HP ([2]; 11 benchmark chemicals): 5; Human potency [2]: 5 |
| CC1(C)S[C@@H]2[C@H](NC(=O)Cc3ccccc3)C(=O)N2[C@H]1C(=O)O [Penicillin G] | – | – | – | 1.06 | – | Human potency [2]: 3 |
| Oc1ccc(O)cc1 [hydroquinone] | 1A | sens | 1A | – | 3 | – |
| O=C(O)c1ccc(O)cc1 [p-hydroxybenzoic acid] | no cat | non-sens | no cat | – | – | – |
| Sc1nc2ccccc2s1 [2-mercaptobenzothiazole] | 1A | sens | 1A | 2.52 | 3 | Human potency [2]: 3 |
| CC(C)=CCC/C(C)=C/CO [geraniol] | – | – | – | 1.76 | – | – |
| OC/C=C/c1ccccc1 [Cinnamic alcohol] | – | – | – | 2.94 | – | Human potency [2]: 3 |
| Nc1ccc(N)cc1 [PPD] | – | – | – | 5.32 | – | Human potency [2]: 1 |
